In general, pIC50 refers to −log10 of the IC50, conventionally taken in molar units. Read a low pIC50 as a high IC50.

We go through two compounds from US6309842A, “Use of modified tethers in screening compound libraries” (Glaxo Wellcome Inc., priority 1997, dated 2001).

Test [1] addresses T1, IL-1R (Homo sapiens, UniProt P14778).
T1 sequence (P14778 18-569): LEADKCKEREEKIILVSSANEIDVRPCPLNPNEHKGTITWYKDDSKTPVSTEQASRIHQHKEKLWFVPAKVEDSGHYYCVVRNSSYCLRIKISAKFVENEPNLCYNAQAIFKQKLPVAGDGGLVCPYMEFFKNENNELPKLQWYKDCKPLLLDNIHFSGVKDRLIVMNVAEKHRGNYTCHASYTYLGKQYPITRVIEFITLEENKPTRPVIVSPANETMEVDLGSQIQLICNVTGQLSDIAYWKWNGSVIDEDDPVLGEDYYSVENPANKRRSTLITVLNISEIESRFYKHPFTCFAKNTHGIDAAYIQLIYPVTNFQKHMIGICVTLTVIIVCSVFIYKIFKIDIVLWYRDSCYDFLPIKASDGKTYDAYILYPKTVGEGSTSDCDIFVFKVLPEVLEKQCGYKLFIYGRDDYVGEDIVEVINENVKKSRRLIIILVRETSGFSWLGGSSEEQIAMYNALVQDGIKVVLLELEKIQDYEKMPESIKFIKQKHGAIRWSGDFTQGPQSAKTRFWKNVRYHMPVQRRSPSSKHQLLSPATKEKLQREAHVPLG
Description: IL-1R binding assay.

Test [2] relates to IL-1RFc. The test can be described thus: Competition assay, IL-1RFc held on reservoir beads, released AP activity. Format: binding. As to conditions: beads coated with streptavidin or biotin-MBP-AF12413. The source says:
This example uses two classes of beads referred to as reservoir beads and library beads. The reservoir beads have receptor immobilized via a known ligand. The library beads have compounds to be screened, identifier tags and tethers as before. A compound released from a library bead competes a labelled receptor from a reservoir bead, and the labelled receptor, directly or indirectly, modifies a tether on proximate library beads. Both sets of beads can be added to nanowells for performing the assay.
500 μl beads (Polysciences, Inc., 2.5% Solids-latex, 2 μm) were washed twice with PBS, resuspended in 1 ml of PBS and split into 5 tubes (a, b, c, d, e). 300 μl 1 mg/ml coating protein was added per tube and incubated at 37° C. for 3 hr on shaker. The beads were washed with PBT. Coating proteins were added in the five tubes as follows: a. BSA-Biotin (Sigma), b. BSA (LC)-Biotin (Sigma), c. Hemocyanin-Biotin (Sigma), d. Streptavidin (Gibco BRL), e. Biotin-MBP-AF12413 [[…](biotin)[…] (SEQ ID NO:30)-maltose binding protein-[…] (SEQ ID NO:31)].
The beads were blocked with 1 ml PBT and incubated at room temperature overnight on shaker and washed with PBT. 300 μl of 1 mg/ml streptavidin and 1.2 ml PBT were added to a, b, c, tubes, which were incubated at; 37° C. for 1 hour on shaker. The tubes were washed twice in PBS. […]

Test [3] concerns the target RARa (Retinoic Acid Receptor alpha) (Homo sapiens, UniProt P10276). The test can be described thus: Gal4 DNA binding domain/RARa fusion with 5x UAS-tk-SEAP reporter in CHOK1 cells.
Description: The Gal4 DNA response element (5× UAS) was cloned upstream of the SEAP reporter gene, driven by the tk promoter, into the pGL3 vector (Promega). The pSG5 vector (Stratagene) was used to clone a Gal4 DNA Binding Domain/RARa (Retinoic Acid Receptor alpha)(carboxy end) fusion. These two plasmids were simultaneously transiently lipofected into CHOK1 cells using with Lipofectamine (Gibco BRL). The lipofected cells were seeded into individual wells on 2, 96-well culture plates (Falcon). The cells were grown for 16 hr in 100 μl/well Optimem Media (Gibco) with 10% dilapidated serum (Sigma) that was heat treated at 65° C. for 45 minutes before adding to the media. Serum was heated to inactivate endogenous phosphatases. After 16 hr growth at 37° C., there were 10^4 cells/well. Cells in one plate were stimulated with 1 μM retinoic acid; the cells in the other plate were not stimulated. Media was the same. The plates were incubated in the 37° C. cell culture incubator for another 24 hr. The supernatants were removed from the individual wells on the plates. All supernatants from stimulated cells were pooled; all supernatants from nonstimulated cells were pooled. Both were stored at 4° C. overnight. The cells were discarded.
The next day, 100 μl of each supernatant was tested for SEAP activity using the Tropix Chemiluminescent Assay Kit, as before.

pIC50: −log10 of the molar value.

RARa (Retinoic Acid Receptor alpha), sequence (P10276 whole entry, the tested form may be a part): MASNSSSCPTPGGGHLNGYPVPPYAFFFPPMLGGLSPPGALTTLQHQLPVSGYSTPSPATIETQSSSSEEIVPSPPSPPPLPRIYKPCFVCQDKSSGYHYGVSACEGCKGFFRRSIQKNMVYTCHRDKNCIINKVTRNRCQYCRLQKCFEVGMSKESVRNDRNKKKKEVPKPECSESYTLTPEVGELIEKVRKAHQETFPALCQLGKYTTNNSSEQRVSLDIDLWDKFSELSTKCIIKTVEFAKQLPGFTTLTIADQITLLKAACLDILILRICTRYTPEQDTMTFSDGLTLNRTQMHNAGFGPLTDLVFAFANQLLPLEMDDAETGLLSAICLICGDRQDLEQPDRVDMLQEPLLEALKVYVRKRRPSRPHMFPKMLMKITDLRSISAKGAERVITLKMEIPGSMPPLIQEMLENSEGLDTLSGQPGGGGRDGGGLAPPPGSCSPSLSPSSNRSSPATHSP

On to NH2-YEWTPGYYQJY-NH2 [AF12304], for which, in test [1], the pIC50 was about 8.70. The “Signal of released AP activity” value in test [2] was “only background signals”.
Turning to `CC1=C(/C=C/C(C)=C/C=C/C(C)=C/C(=O)O)C(C)(C)CCC1` [retinoic acid], in test [3] (1 μM retinoic acid, 24 hr stimulation), the “SEAP produced in supernatant” value was “about 0.52 units of SEAP/ml”. The fold induction at 1 µM in test [3] (CHO-K1, 24 h, read-out: Increase in SEAP production upon stimulation) amounted to 126.
